Results reported in patent publication US9242944B2 (UNIVERSITY OF MARYLAND, BALTIMORE, priority 2013, dated 2016).
Read-outs that look alike come from different tables or passages of the source.

Molecular target: T1, c-Myc-Max heterodimers (Homo sapiens, UniProt P01106)
T1 construct: c-Myc bHLH-ZIP domain (residues 353-437); His6-TEV protease substrate tag; made in house; host or cells: bacteria (pET151 vector for Myc)
Experiment: Electrophoretic mobility shift assay (EMSA) of c-Myc-Max dimerization and DNA binding
Protocol: The ability of a small-molecule to interfere with c-Myc-Max dimerization is conveniently assessed through the disruption of the c-Myc-Max/DNA ternary complex by an electrophoretic mobility shift assay (EMSA) using fluorescently-labelled DNA, and subsequently quantified by densitometry.(23) Accordingly, a 100-member library was screened for the ability to disrupt the c-Myc-Max dimer.
These were performed essentially as described previously (23). Briefly, Ni^+-agarose-purified His6-tagged c-Myc bHLH-ZIP domain (residues 353-437) was used for all binding assays as was the His6-tagged 151 residue isoform of Max, otherwise referred to as Max(S) (residues 2-151) (21). For each binding reaction, the proteins were allowed to heterodimerize at a concentration of 30 nM each in the presence of 20 nM of a 5′-HEX-tagged double-stranded 22-base pair oligonucleotide 5′-hexachlorofluoresceine-[…]-3′ (SEQ ID NO: 1) containing a consensus c-Myc binding site (CACGTG) and the indicated concentration of small molecule inhibitor. Control reactions contained the same oligonucleotide in the presence of 60 nM of the 160 residue isoform of Max referred to as Max(L) (21). All binding reactions were prepared in a buffer consisting of PBS (pH 7.3), 1 mmol/L EDTA, 0.1% NP40, 5% glycerol, 1 mmol/L DTT, and 0.4 mg/mL bovine serum albumin. Electrophoresis was performed on 8% polyacrylamide/bisacrylamide (80:1) gels in […] (23). Each reaction was run on at least three separate occasions.
EMSAs were performed essentially as described utilizing bacterially-expressed recombinant proteins purified nearly to homogeneity.(23) Experiments with Max homodimers used the His6-tagged 160 amino acid isoform of the protein, termed Max(L), which homodimerizes and binds DNA well. For studies with Myc-Max heterodimers, the His6-tagged 151 residue isoform of Max [Max(S)] was used, which binds DNA well as a heterodimer with Myc but poorly as a homodimer.(23) Recombinant Myc protein, expressed in the pET151 vector, consisted of the His6-TEV protease substrate-tagged 85 amino acid bHLH-ZIP domain. (23) Each protein was purified by Ni-agarose affinity chromatography as previously described. (23) The His6-TEV tag was removed from the Myc protein by TEV protease cleavage followed by re-purification using Ni-agarose affinity chromatography to remove the His6-TEV protease and the cleaved His6-TEV tag as previously described. Binding assays were performed with 30 nM of each protein and 30 nM of a 6-carboxy-2′,4,4′,5′,7,7′-hexachlorofluorescein (HEX)-tagged double-stranded oligonucleotide containing a consensus Myc binding site (IDT, Coralville, Iowa).(23)

[1] = Table 10, 100 μM small-molecule, EMSA, read-out: % Inhibition of c-Myc-Max Dimerization
[2] = Table 11, 100 uM, EMSA, read-out: % Inhibition of c-Myc-Max Dimerization
[3] = read-out: Inhibition at 100 μM (%), Table 1, 100 μM compound, Myc-Max/DNA band intensity relative to control
[4] = Table 1, 100 μM compound, Myc-Max/DNA band intensity relative to control, read-out: Inhibition at 100 μM (%)
[5] = Table 2, 100 μM compound, Myc-Max/DNA band intensity relative to control, read-out: Inhibition at 100 μM (%)

T1 sequence (P01106 368-452, one chain of several): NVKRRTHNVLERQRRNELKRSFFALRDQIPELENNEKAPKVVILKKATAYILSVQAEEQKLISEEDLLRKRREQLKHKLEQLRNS

Work on `N#Cc1ccc(-c2cc(Nc3ccc([N+](=O)[O-])c4nonc34)ccc2C(=O)O)cc1` [Compound 3jc62-6] yielded an inhibition at 100 µM [1] of 25%.

`N#Cc1ccccc1-c1cc(C(=O)O)ccc1Nc1ccc([N+](=O)[O-])c2nonc12` [Compound 3jc53-7] gave an inhibition at 100 µM [1] of 44%.

Molecule `COc1ccc(-c2cc(C(=O)O)ccc2Nc2ccc([N+](=O)[O-])c3nonc23)cc1` [Compound 3jc53-14] has an inhibition at 100 µM [1] of 4%.

`O=C(O)c1ccc(Nc2ccc([N+](=O)[O-])c3nonc23)c(-c2ccccc2)c1` [Compound 3jc42] gave an inhibition at 100 µM [1] of 10%.

Work on `Nc1ccc(Nc2ccccc2-c2ccccc2)cc1` [SF-3-098] yielded an inhibition at 100 µM [2] of 0%.

`N#Cc1cccc(-c2cc(C(=O)O)ccc2Nc2ccc([N+](=O)[O-])c3nonc23)c1` [Compound 3jc53-8] showed an inhibition at 100 µM [1] of 23%.

Molecule `NC(=O)c1ccc(Nc2ccccc2-c2ccccc2)cc1` [SF-3-093A] has an inhibition at 100 µM [2] of 0%.

`N#Cc1ccc(Nc2ccccc2-c2ccccc2)c(Cl)c1` [SF-3-083] gave an inhibition at 100 µM [2] of 9%.

Work on `O=[N+]([O-])c1ccc(Nc2ccccc2)c2nonc12` [Compound 3a, 7-Nitro-N-phenylbenzo[c][1,2,5]oxadiazol-4-amine] yielded an inhibition at 100 µM [3] of 2%.

In the case of `O=C(O)c1ccc(Nc2ccc([N+](=O)[O-])c3nonc23)c(-c2cccc(-c3ccccc3)c2)c1` [Compound 3jc53-2], the inhibition at 100 µM [1] is reported as 0%.

Work on `COC(=O)c1ccc(Nc2ccccc2-c2ccccc2)cc1` [SF-3-105] yielded an inhibition at 100 µM [2] of 0%.

Work on `O=[N+]([O-])c1ccc(NCc2ccccc2)c2nonc12` [Compound 3c, N-Benzyl-7-nitrobenzo[c][1,2,5]oxadiazol-4-amine] yielded an inhibition at 100 µM [4] of 0%.

With `O=[N+]([O-])c1ccc(Nc2ccccc2-c2ccccc2)cc1` [SF-3-068] the inhibition at 100 µM [2] was 0%.

Work on `CCc1ccc(-c2cc(C(=O)O)ccc2Nc2ccc([N+](=O)[O-])c3nonc23)cc1` [Compound 3jc53-10] yielded an inhibition at 100 µM [1] of 34%.

`Cc1ccc(-c2cc(Nc3ccc([N+](=O)[O-])c4nonc34)ccc2C(=O)O)cc1` [Compound 3jc62-3] showed an inhibition at 100 µM [1] of 0%.

In the case of `O=C(O)c1ccc(Nc2ccc([N+](=O)[O-])c3nonc23)c(-c2ccc(-c3ccccc3)cc2)c1` [Compound 3jc53-3], the inhibition at 100 µM [1] is reported as 41%.

With `N#Cc1ccc(-c2cc(C(=O)O)ccc2Nc2ccc([N+](=O)[O-])c3nonc23)cc1` [Compound 3jc53-9] the inhibition at 100 µM [1] was 13%.

With `N#Cc1ccccc1-c1cc(Nc2ccc([N+](=O)[O-])c3nonc23)ccc1C(=O)O` [Compound 3jc62-4] the inhibition at 100 µM [1] was 0%.

Molecule `Cc1cccc(-c2cc(Nc3ccc([N+](=O)[O-])c4nonc34)ccc2C(=O)O)c1` [Compound 3jc62-2] has an inhibition at 100 µM [1] of 0%.

For `COC(=O)Nc1ccc(Nc2ccccc2-c2ccccc2)c2nonc12` [Compound 5c, Methyl (7-([1,1′-biphenyl]-2-ylamino)benzo[c][1,2,5]oxadiazol-4-yl)carbamate], the inhibition at 100 µM [5] was 0%.

Molecule `COc1ccccc1Nc1ccc([N+](=O)[O-])c2nonc12` [Compound 3h, N-(2-Methoxyphenyl)-7-nitrobenzo[c][1,2,5]oxadiazol-4-amine] has an inhibition at 100 µM [4] of 0%.

`O=[N+]([O-])c1ccc(Nc2ccccc2Br)c2nonc12` [Compound 3f, N-(2-Bromophenyl)-7-nitrobenzo[c][1,2,5]oxadiazol-4-amine] gave an inhibition at 100 µM [4] of about 40%.

`Cc1ccc(Nc2ccc([N+](=O)[O-])c3nonc23)cc1` [Compound 3o, 7-Nitro-N-(p-tolyl)benzo[c][1,2,5]oxadiazol-4-amine] was tested, and the inhibition at 100 µM [3] was 0%.

For `O=C(O)c1ccc(Nc2ccc([N+](=O)[O-])c3nonc23)cc1-c1ccccc1` [Compound 3jc62-7], the inhibition at 100 µM [1] was 0%.

`O=C(O)c1ccccc1Nc1ccc([N+](=O)[O-])c2nonc12` [Compound 3i, 2-((7-Nitrobenzo[c][1,2,5]oxadiazol-4-yl)amino)benzoic acid] was tested, and the inhibition at 100 µM [4] was 8%.

`O=[N+]([O-])c1ccc(Oc2ccccc2-c2ccccc2)c2nonc12` [Compound 3j, 4-([1,1′-Biphenyl]-2-yloxy)-7-nitrobenzo[c][1,2,5]oxadiazole] showed an inhibition at 100 µM [4] of 36%.

With `O=C(O)c1cccc(Nc2ccc([N+](=O)[O-])c3nonc23)c1` [Compound 3m, 3-((7-Nitrobenzo[c][1,2,5]oxadiazol-4-yl)amino)benzoic acid] the inhibition at 100 µM [4] was 0%.

Work on `Cc1ccccc1-c1cc(C(=O)O)ccc1Nc1ccc([N+](=O)[O-])c2nonc12` [Compound 3jc53-4] yielded an inhibition at 100 µM [1] of 7%.

`O=[N+]([O-])c1ccc(Nc2ccccc2O)c2nonc12` [Compound 3g, 2-((7-Nitrobenzo[c][1,2,5]oxadiazol-4-yl)amino)phenol] was tested, and the inhibition at 100 µM [4] was 13%.

Molecule `O=[N+]([O-])c1ccc(Nc2ccccc2-c2ccccc2)nc1` [SF-3-081] has an inhibition at 100 µM [2] of 0%.

For `O=C(Nc1ccc(Nc2ccccc2-c2ccccc2)c2nonc12)C(F)(F)F` [Compound 5b, N-(7-([1,1′-Biphenyl]-2-ylamino)benzo[c][1,2,5]oxadiazol-4-yl)-2,2,2-trifluoroacetamide], the inhibition at 100 µM [5] was 25%.

`N#Cc1cc(Nc2ccccc2-c2ccccc2)ccc1[N+](=O)[O-]` [SF-3-080] was tested, and the inhibition at 100 µM [2] was 0%.

`NC(=O)c1cc([N+](=O)[O-])ccc1Nc1ccccc1-c1ccccc1` [SF-3-103A] was tested, and the inhibition at 100 µM [2] was 0%.

For `O=[N+]([O-])c1ccc(Nc2ccccc2-c2ccccc2)cc1O` [SF-3-101], the inhibition at 100 µM [2] was 0%.

`COC(=O)c1cc([N+](=O)[O-])ccc1Nc1ccccc1-c1ccccc1` [SF-3-106] was tested, and the inhibition at 100 µM [2] was 0%.

`NC(=O)c1cc(Nc2ccccc2-c2ccccc2)ccc1[N+](=O)[O-]` [SF-3-104A] showed an inhibition at 100 µM [2] of 0%.

Work on `N#Cc1cccc(-c2cc(Nc3ccc([N+](=O)[O-])c4nonc34)ccc2C(=O)O)c1` [Compound 3jc62-5] yielded an inhibition at 100 µM [1] of 8%.

With `Cc1ccccc1Nc1ccc([N+](=O)[O-])c2nonc12` [Compound 3e, 7-Nitro-N-(o-tolyl)benzo[c][1,2,5]oxadiazol-4-amine] the inhibition at 100 µM [4] was 11%.

Molecule `COC(=O)c1cc(Nc2ccccc2-c2ccccc2)ccc1[N+](=O)[O-]` [SF-3-107] has an inhibition at 100 µM [2] of 0%.

`N#Cc1ccc(Nc2ccccc2-c2ccccc2)cc1` [SF-3-078] was tested, and the inhibition at 100 µM [2] was 2%.

In the case of `CC(C)(C)c1ccc(-c2cc(C(=O)O)ccc2Nc2ccc([N+](=O)[O-])c3nonc23)cc1` [Compound 3jc53-12], the inhibition at 100 µM [1] is reported as 2%.

In the case of `O=[N+]([O-])c1ccc(Nc2ccccc2-c2ccccc2)cc1` [Compound 7, N-(4-Nitrophenyl)-[1,1′-biphenyl]-2-amine], the inhibition at 100 µM [5] is reported as 0%.

In the case of `O=[N+]([O-])c1ccc(NC2CCCCC2)c2nonc12` [Compound 3b, N-Cyclohexyl-7-nitrobenzo[c][1,2,5]oxadiazol-4-amine], the inhibition at 100 µM [4] is reported as 11%.

Work on `O=C(O)COCC(=O)Nc1ccc(Nc2ccccc2-c2ccccc2)c2nonc12` [Compound 5e, 2-(2-((7-([1,1′-Biphenyl]-2-ylamino)benzo[c][1,2,5]oxadiazol-4-yl)amino)-2-oxoethoxy)acetic acid] yielded an inhibition at 100 µM [5] of 33%.

With `CC(C)c1ccc(-c2cc(C(=O)O)ccc2Nc2ccc([N+](=O)[O-])c3nonc23)cc1` [Compound 3jc53-11] the inhibition at 100 µM [1] was 0%.

`O=C(O)c1ccc(Nc2ccc([N+](=O)[O-])c3nonc23)c(-c2ccc(C(F)(F)F)cc2)c1` [Compound 4jc23-6] was tested, and the inhibition at 100 µM [1] was 0%.

With `O=[N+]([O-])c1ccc(N2CCCCC2)c2nonc12` [Compound 3d, 4-Nitro-7-(piperidin-1-yl)benzo[c][1,2,5]oxadiazole] the inhibition at 100 µM [4] was 10%.

Molecule `Cc1cccc(-c2cc(C(=O)O)ccc2Nc2ccc([N+](=O)[O-])c3nonc23)c1` [Compound 3j53-5] has an inhibition at 100 µM [1] of 16%.

Molecule `Cc1ccccc1-c1cc(Nc2ccc([N+](=O)[O-])c3nonc23)ccc1C(=O)O` [Compound 3jc62-1] has an inhibition at 100 µM [1] of 0%.

`CC(=O)Nc1ccc(Nc2ccccc2-c2ccccc2)c2nonc12` [Compound 5a, N-(7-([1,1′-Biphenyl]-2-ylamino)benzo[c][1,2,5]oxadiazol-4-yl)acetamide] was tested, and the inhibition at 100 µM [5] was 2%.
